Data on four compounds can be found in patent US20070021348A1, “Novel treatment” (SmithKline Beecham Corp., & SmithKline Beecham, p.l.c., priority 1999, published 2007).

pKd, pKi: −log10 of the molar value. Starred links: 1 amine or outer side, 2 acyl side, 3 side chain; linkers in the order of their positions; H or OH if unused. Non-standard residues stand in square brackets, D forms with d. Residues, ends and D or L forms follow the SMILES beside them. *: point of attachment. Hexanoyl(5S-NH,4S-OH,6-Ph) = O=C(CC[C@H](O)[C@H](Cc1ccccc1)N[*:1])[*:2]; X2 = C[C@H](C[C@H](O)[C@H](Cc1ccccc1)N[*:1])C(=O)[*:2]; X3 = Nc1ccc2c(c1)Oc1ccccc1C21OC(=O)c2cc(C(=O)*)ccc21; X1 = CC(C)C[C@H](N[*:1])[C@@H](O)CCC(=O)[*:2]

The target in experiment [1] is T1, Asp2-Fc enzyme (Homo sapiens, UniProt P56817).
T1 construct: A cDNA fragment encoding Asp 2, amino acids 1 to 460; made in house; host or cells: CHO E1A (derived from DG-44), secreted, purified on Protein A
Put plainly: Fluorescence Resonance Energy Transfer (FRET) cleavage assay for Asp2. Format: biochemical. As to conditions: 0.5 uM fluorescent Swedish variant APP beta-site peptide substrate, 25 nM enzyme, pH 3.8. The procedure: Preparation of Asp 2—Fc Fusion Protein (Asp 2(1-460)-Fc)
A cDNA fragment encoding Asp 2, amino acids 1 to 460 (EP855444 but with 130 Glu->Val), was subcloned to create a fusion protein with human immunoglobulin, residues 99-330 of IgGI, and cloned into the mammalian expression vector pCDN (Aiyar et al). The plasmid was linearized by digestion with Not 1 (15 ug DNA, 37′C, overnight), sterially precipitated and resuspended into 50 ul 1 X TE buffer (10 mM Tris, 1 mM EDTA, pH 7.5). […]
A peptide (X) based on the sequence of the Swedish variant APP beta-site sequence has been doubly labelled for use in a FRET assay. […] This would allow cleavage of the intervening peptide sequence by Asp2 to be monitored by energy transfer between the two fluorescent groups.
The fluorescent peptide substrate (0.5 uM) was incubated with Asp2-Fc enzyme, prepared as described above, in a buffer containing 50 mM sodium acetate, 20 mM sodium chloride, 5% glycerol, 0.1% CHAPS (3-[(3-Cholamidopropyl) dimethylammonio]-1-propane-sulphonate), pH 3.8). The assays were started by addition of enzyme (25 nM final concentration) and cleavage monitored on a fluorescent platereader with 485 nm excitation, 538 nm emission. […]
This assay was used to determine IC50 and Ki values for compounds of interest. […] Asp 2 Fluorescence Polarisation Assay.

The target in experiment [2] is T1, Asp2-Fc enzyme. Put plainly: Asp 2 fluorescence polarisation assay, Kd of labelled ligand. The settings on record: ligand 1-100 nM, enzyme from 100 nM down in twofold dilutions, pH 4.0, 15 min equilibration, anisotropy; read-out: Kd for the tight binding interaction. The procedure:
A competition assay has also been designed to identify compounds acting at the Asp2 active site. The hydroxyethylene inhibitor, (I), has been modified by addition of 5-, 6-rhodamine green to the free N-terminal amine of the compound to create labelled ligand (III). [drawing 4] The resulting compound was tested experimentally as follows to determine the Kd with Asp2-Fc enzyme, prepared as above.
A three dimensional analysis varying enzyme and compound (III) was performed. Ligand concentration range was 1, 3, 10, 30 and 100 nM. Enzyme concentration range was from 100 nM down in serial twofold dilutions (11 dilutions+no enzyme control). Ligand of appropriate concentration was prepared in 5% DMSO. The enzyme solutions were prepared in 2 times (×2) assay buffer (where ×1=50 mM sodium acetate, 20 mM sodium chloride, 5% glycerol, 0.1% CHAPS, pH 4.0). 5 ul of the enzyme solution (of varying concentration) was mixed with 5 ul of the ligand (of varying concentration) in a low volume 384 microtitre plate. The samples were allowed to equilibrate for 15 min before the fluorescence polarisation was read on an LJL Acquest platereader.
The Anisotropy values were plotted and the Kd for the tight binding interaction obtained.
(Polarisation of emitted light reports the rotation of a fluorescent probe.)

Experiment [3] concerns the target T1, Asp2-Fc enzyme. Put plainly: Asp 2 fluorescence polarisation competition assay against labelled ligand (III). Format: binding. The procedure:
Enzyme (at a fixed concentration of 25 nM), ligand (III) (at a fixed concentration of 2.5 nM) and test compound (10 uM down in twofold serial dilutions) were mixed in ×1 assay buffer (50 mM 50 mM sodium acetate, 20 mM sodium chloride, 5% glycerol, 0.1% CHAPS, pH 3.8) in a final assay volume of 10 ul and allowed to equilibrate for 3 hrs. The fluorescence polarisation was then read. The experiment was performed in duplicate.

With `CC(C)[C@H](NC(=O)[C@@H](N)CCC(=O)O)C(=O)N[C@@H](CC(N)=O)C(=O)N[C@@H](Cc1ccccc1)[C@@H](O)CCC(=O)N[C@@H](C)C(=O)N[C@@H](CCC(=O)O)C(=O)N[C@@H](Cc1ccccc1)C(=O)O` [(I)] (H-EVN[Hexanoyl(5S-NH,4S-OH,6-Ph)]AEF-OH), the pKi on Asp2-Fc enzyme [1] was 8.11.

On to `CC(C)[C@H](NC(=O)[C@@H](N)CCC(=O)O)C(=O)N[C@@H](CC(N)=O)C(=O)N[C@@H](Cc1ccccc1)[C@@H](O)C[C@@H](C)C(=O)N[C@@H](C)C(=O)N[C@@H](CCC(=O)O)C(=O)N[C@@H](Cc1ccccc1)C(=O)O` [(II)] (H-EVN[X2]AEF-OH), for which the pKi at Asp2-Fc enzyme [1] is 8.14.

Consider `CC(C)[C@H](NC(=O)[C@H](CCC(=O)O)NC(=O)c1ccc2c(c1)C(=O)OC21c2ccccc2Oc2cc(N)ccc21)C(=O)N[C@@H](CC(N)=O)C(=O)N[C@@H](Cc1ccccc1)[C@@H](O)CCC(=O)N[C@@H](C)C(=O)N[C@@H](CCC(=O)O)C(=O)N[C@@H](Cc1ccccc1)C(=O)O` (stereo partly drawn) [(III)] (X3-EVN[Hexanoyl(5S-NH,4S-OH,6-Ph)]AEF-OH), for which, on Asp2-Fc enzyme [2], the negative-log Kd (pKd) was 8.91.

In the case of `CC(C)C[C@H](NC(=O)[C@H](C)NC(=O)[C@@H](NC(=O)[C@@H](N)CCC(=O)O)C(C)C)[C@@H](O)CCC(=O)N[C@@H](C)C(=O)N[C@@H](CCC(=O)O)C(=O)N[C@@H](Cc1ccccc1)C(=O)O` [Compound (IV)] (H-EVA[X1]AEF-OH), the pKi on Asp2-Fc enzyme [3] (25 nM enzyme, 2.5 nM ligand (III), pH 3.8, 3 hrs equilibration, duplicate) was 7.17. Moreover, on Asp2-Fc enzyme [3] (at the highest concentrations of test compound (10 uM down in twofold serial dilutions)), the “displacement of the fluorescent ligand (III)” value was “Complete displacement”.

For orientation: pKi means the negative decadic logarithm of the Ki, by convention in mol/L. The pKd is −log10 of the Kd, conventionally taken in molar units.
